Assay results taken from PubChem BioAssay AID1963839 (Molecular Pharmacology Branch, DTP, NCI, 2024).

Tested on: 817829-284-R-J1-PDC complex spheroid viability
Assay: Anticancer human tumor 817829-284-R-J1-PDC patient-derived colon adenocarcinoma cell line growth inhibition [POLQ]
Conditions: for IC50: curve of first compound; for viability, T/C: stronger effect = lower value; active means viability on the fitted dose curve at most 10% of control; inactive means the rest
Outline: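 Complex spheroid viability model combining PDC tumour cells with endothelial (HUVEC) and MSC stromal cells. Novobiocin, ART-558 or RP6685 were tested singly and in combination with standard and investigational anticancer drugs. Each was titrated in half-log steps from near clinical Cmax, or from 10 microM where Cmax was unknown.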

[1] = second compound 0.0316 µM, first compound 0.0316 µM
[2] = second compound 0.0316 µM, first compound 0.1 µM
[3] = second compound 0.0316 µM, first compound 0.316 µM
[4] = second compound 0.0316 µM, first compound 1 µM
[5] = second compound 0.0316 µM, first compound 3.16 µM
[6] = second compound 0.0316 µM, first compound 10 µM
[7] = second compound 0.1 µM, first compound 0.0316 µM
[8] = second compound 0.1 µM, first compound 0.1 µM
[9] = second compound 0.1 µM, first compound 0.316 µM
[10] = second compound 0.1 µM, first compound 1 µM
[11] = second compound 0.1 µM, first compound 3.16 µM
[12] = second compound 0.1 µM, first compound 10 µM
[13] = second compound 0.316 µM, first compound 0.0316 µM
[14] = second compound 0.316 µM, first compound 0.1 µM
[15] = second compound 0.316 µM, first compound 0.316 µM
[16] = second compound 0.316 µM, first compound 1 µM
[17] = second compound 0.316 µM, first compound 3.16 µM
[18] = second compound 0.316 µM, first compound 10 µM
[19] = second compound 1 µM, first compound 0.0316 µM
[20] = second compound 1 µM, first compound 0.1 µM
[21] = second compound 1 µM, first compound 0.316 µM
[22] = second compound 1 µM, first compound 1 µM
[23] = second compound 1 µM, first compound 3.16 µM
[24] = second compound 1 µM, first compound 10 µM
[25] = second compound 3.16 µM, first compound 0.0316 µM
[26] = second compound 3.16 µM, first compound 0.1 µM
[27] = second compound 3.16 µM, first compound 0.316 µM
[28] = second compound 3.16 µM, first compound 1 µM
[29] = second compound 3.16 µM, first compound 3.16 µM
[30] = second compound 3.16 µM, first compound 10 µM
[31] = second compound 10 µM, first compound 0.0316 µM
[32] = second compound 10 µM, first compound 0.1 µM
[33] = second compound 10 µM, first compound 0.316 µM
[34] = second compound 10 µM, first compound 1 µM
[35] = second compound 10 µM, first compound 3.16 µM
[36] = second compound 10 µM, first compound 10 µM
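Further: spheroids exposed to compounds for 7 days.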
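Wherever viability, T/C is given: 100% = DMSO vehicle-treated spheroids.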

CCc1cc2c(N3CCc4c(cc(Cn5ccnc5)cc4-c4cn(C)nc4C(F)(F)F)C3=O)ccnc2c(OC)n1 + Cc1cccc(N(C)C(=O)C2C(O)CCN2c2nc(C)cc(C(F)(F)F)c2C#N)c1
inactive: viability, T/C [1] 84% | viability, T/C [2] 73.8% | viability, T/C [3] 67.4% | viability, T/C [4] 64.2% | viability, T/C [5] 49.7% | viability, T/C [6] 38.4% | viability, T/C [7] 87.5% | viability, T/C [8] 96% | viability, T/C [9] 72.7% | viability, T/C [10] 77.2% | viability, T/C [11] 54.7% | viability, T/C [12] 31.2% | viability, T/C [13] 95.5% | viability, T/C [14] 87.9% | viability, T/C [15] 76.9% | viability, T/C [16] 73.8% | viability, T/C [17] 51.3% | viability, T/C [18] 41.1% | viability, T/C [19] 90.6% | viability, T/C [20] 82.2% | viability, T/C [21] 76.8% | viability, T/C [22] 65.4% | viability, T/C [23] 47.1% | viability, T/C [24] 29.3% | viability, T/C [25] 84.9% | viability, T/C [26] 94.9% | viability, T/C [27] 86.8% | viability, T/C [28] 61.1% | viability, T/C [29] 50.1% | viability, T/C [30] 32.8% | viability, T/C [31] 92.9% | viability, T/C [32] 71.8% | viability, T/C [33] 69.1% | viability, T/C [34] 56.8% | viability, T/C [35] 42.1% | viability, T/C [36] 30.5%
4.63 µM: IC50 (second compound 0.316 µM)
4.18 µM: IC50 (second compound 0.1 µM)
2.77 µM: IC50 (second compound 1 µM)
2.43 µM: IC50 (second compound 3.16 µM)
3.28 µM: IC50 (second compound 0.0316 µM)
1.57 µM: IC50 (second compound 10 µM)

O=C(Nc1ccc(O)c(NS(=O)(=O)c2ccc(F)cc2)c1)c1ccc(-c2ccccc2)cc1 + Nc1ccc(C#CCN(C(=O)Cc2ncc(C(F)(F)F)cc2C(F)(F)F)c2ccc(F)cc2)nn1
6.95 µM: IC50 (second compound 10 µM)
7.12 µM: IC50 (second compound 0.1 µM)
7.08 µM: IC50 (second compound 3.16 µM)
6.53 µM: IC50 (second compound 0.0316 µM)
inactive: viability, T/C [1] 109% | viability, T/C [2] 94.8% | viability, T/C [3] 107% | viability, T/C [4] 101% | viability, T/C [5] 70.2% | viability, T/C [6] 38.1% | viability, T/C [7] 103% | viability, T/C [8] 110% | viability, T/C [9] 90.6% | viability, T/C [10] 102% | viability, T/C [11] 74.7% | viability, T/C [12] 39.7% | viability, T/C [13] 113% | viability, T/C [14] 105% | viability, T/C [15] 105% | viability, T/C [16] 107% | viability, T/C [17] 76.9% | viability, T/C [18] 36.5% | viability, T/C [19] 113% | viability, T/C [20] 102% | viability, T/C [21] 100% | viability, T/C [22] 98.2% | viability, T/C [23] 86.6% | viability, T/C [24] 39.5% | viability, T/C [25] 100% | viability, T/C [26] 98.5% | viability, T/C [27] 119% | viability, T/C [28] 96.2% | viability, T/C [29] 88% | viability, T/C [30] 34.1% | viability, T/C [31] 103% | viability, T/C [32] 88.9% | viability, T/C [33] 113% | viability, T/C [34] 97.2% | viability, T/C [35] 85.3% | viability, T/C [36] 33.8%
6.8 µM: IC50 (second compound 0.316 µM)
7.73 µM: IC50 (second compound 1 µM)

CNCc1ccc(-c2[nH]c3cc(F)cc4c3c2CCNC4=O)cc1 + Cc1cccc(N(C)C(=O)C2C(O)CCN2c2nc(C)cc(C(F)(F)F)c2C#N)c1
3.41 µM: IC50 (second compound 0.316 µM)
3.84 µM: IC50 (second compound 10 µM)
7.64 µM: IC50 (second compound 0.1 µM)
3.32 µM: IC50 (second compound 3.16 µM)
inactive: viability, T/C [1] 87.5% | viability, T/C [2] 67.2% | viability, T/C [3] 68.4% | viability, T/C [4] 58.2% | viability, T/C [5] 49.9% | viability, T/C [6] 33.9% | viability, T/C [7] 74.9% | viability, T/C [8] 67.8% | viability, T/C [9] 86.7% | viability, T/C [10] 60.4% | viability, T/C [11] 74.7% | viability, T/C [12] 43% | viability, T/C [13] 97.8% | viability, T/C [14] 76.5% | viability, T/C [15] 70.5% | viability, T/C [16] 66.6% | viability, T/C [17] 53.7% | viability, T/C [18] 36.3% | viability, T/C [19] 104% | viability, T/C [20] 71.9% | viability, T/C [21] 86.4% | viability, T/C [22] 55.9% | viability, T/C [23] 51.8% | viability, T/C [24] 33.1% | viability, T/C [25] 82.4% | viability, T/C [26] 54.2% | viability, T/C [27] 79.1% | viability, T/C [28] 77.9% | viability, T/C [29] 50.9% | viability, T/C [30] 30.3% | viability, T/C [31] 70.9% | viability, T/C [32] 78.1% | viability, T/C [33] 67.1% | viability, T/C [34] 62.5% | viability, T/C [35] 55.6% | viability, T/C [36] 31.4%
2.69 µM: IC50 (second compound 1 µM)
2.24 µM: IC50 (second compound 0.0316 µM)
